Results reported in US20250295656A1, “COMBINATION OF LURBINECTEDIN AND IMMUNE CHECKPOINT INHIBITORS” (priority 2020, published 2025).

Tests used:
[1] = tested on: mRNA transcription in U2OS cells; assay: Transcription level by nucleolin/fibrillarin colocalization; type: cell-based, human; conditions: 10, 50 or 100 nM, actinomycin D as control
Protocol: Human osteosarcoma U2OS cells were treated with 10, 50 or 100 nM lurbinectedin (Lurbi) for 6 hours. Thapsigargin (Thaps, 3 μM) was used as a positive control. The cells were fixed with 3.7% PFA and DNA was stained with 1 μM Hoechst 33342. Following the phosphorylation of the eukaryotic translation initiation factor 2 alpha (eIF2a) was assessed with phosphoneoepitope-specific antibody and was monitored by means of automated microscopy as an increase in cytoplasmic fluorescence intensity. (a,b) The level of transcription was measured in U2OS cell treated as above with Lurbi. The transcription inhibitor actinomycin D (ActD) was used as a control. The cells were fixed as above and following the colocalization of nucleolin and fibrillarin was assessed as an indicator for transcriptional activity (c,d) Scale bar equals 10 μm and bar charts depict mean values±SD of quadruplicate assessments (*p<0.01; *p<0.001, two-tailed Student's t test).
In a systematic screening campaign, the capacity of lurbinectedin to induce immunogenic cell death in cancer cells was assessed in human osteosarcoma U2OS cells stably expressing fluorescent biosensors for the detection of CALR-relocation (as a surrogate marker for CALR surface exposure), HMGB1 release and Type I IFN responses together with U2OS WT cells stained with the ATP-sensitive dye quinacrine. […]

[2] = tested on: U2OS biosensor cells expressing GFP under the MX1 promoter; assay: Type I IFN response (MX1-GFP biosensor cells treated with supernatant); type: cell-based, human; conditions: supernatant of treated U2OS cells after 48 hours fresh media; biosensor cells 48 hours; throughout all time points
Protocol: In a systematic screening campaign, the capacity of lurbinectedin to induce immunogenic cell death in cancer cells was assessed in human osteosarcoma U2OS cells stably expressing fluorescent biosensors for the detection of CALR-relocation (as a surrogate marker for CALR surface exposure), HMGB1 release and Type I IFN responses together with U2OS WT cells stained with the ATP-sensitive dye quinacrine. […] The induction of cell death was evaluated based on changes in the nuclear morphology visualized by means of the DNA intercalating dye Hoechst 33342.

[3] = tested on: human osteosarcoma U2OS cells; assay: Loss of viability by nuclear morphology (Hoechst 33342), automated microscopy; type: cell-based; conditions: lurbinectedin 1 nM to 1 μM, 4, 8, 16 and 32 hours, comparable to MTX 1 and 3 μM
Protocol: (a) Human osteosarcoma U2OS (a), human breast cancer HCC70 (b) human colon cancer HT29 cells (c) and murine methylcholantrene-induced fibrosarcoma MCA205 cells (d) were treated with lurbinectedin (Lurbi, 1 nM, 10 nM, 100 nM and 1 μM) for the indicated times. Subsequently, the cells were stained with 1 μM Hoechst 33342 and 1 μM propidium iodide and assessed for the loss of viability by automated image acquisition. Images were segmented, cellular debris was excluded and the number of cells with normal nuclear morphology was enumerated. Cells stably expressing CALR-GFP were treated as above. Following the cells were fixed with 3.7% of PFA, stained with 1 μM Hoechst 33342 and assessed by automated image acquisition. Images were segmented, cellular debris was excluded and CALR-GFP granularity (a surrogate marker of CALR exposure) was evaluated in the cytoplasmic region of cells with normal nuclear morphology. Wild type cells were treated as above and then assessed for cytoplasmic quinacrine granularity (after staining with the ATP-sensitive dye quinacrine together with Hoechst 33342) by automated image acquisition, segmentation and analysis. Cells stably expressing HMGB1-GFP were treated as above and then assessed for nuclear HMGB1-GFP fluorescence intensity. The cells were fixed and stained with Hoechst 33342 and images were acquired, segmented and analyzed. […]

COc1ccc2[nH]c3c(c2c1)CCN[C@]31CS[C@@H]2c3c(OC(C)=O)c(C)c4c(c3[C@H](COC1=O)N1[C@@H]2[C@H]2c3c(cc(C)c(OC)c3O)C[C@@H]([C@@H]1O)N2C)OCO4 [lurbinectedin]
mRNA transcription (dissociation of nucleolin and fibrillarin) [1]: inhibited mRNA transcription at a level comparable to a known transcription-inhibitor
de novo GFP signal intensity (type 1 IFN response) [2]: significant increase
cellular viability [3]: dose- and time-dependent drop
